Measured values from US8604190B2, “Hetero isonipecotic modulators of vanilloid VR1 receptor” (Janssen Pharmaceutica NV, priority 2004, dated 2013).

Target: T1, human VR1 (Homo sapiens, UniProt Q8NER1)
T1 construct: expressed in transfected cells; host or cells: A431 cells
Assay: Human VR1 functional assay (FLIPR, intracellular Ca++)
Type: cell-based
Settings: A431 cells expressing human VR1, Ca++-sensitive dye, dose-response
Experimental: The compounds of the invention were tested using a high throughput VR-1 FLIPR assay.
Human VR1 Functional Assay
The functional activity of the test compounds was determined by measuring changes in intracellular calcium concentration using a Ca^++-sensitive fluorescent dye and FLIPR™ technology. Increases in Ca^++ concentration were readily detected upon challenge with resiniferatoxin (RTX). A431 cells expressing human VR1 were seeded on polystyrene 384-well back walled clear bottom assay plates coated with collagen and incubated for 3-4 hours at 37° C. with 5% CO2 in DMEM. Plates were loaded with […] of 2× Dye Solution, incubated for 1-1.5 hours and subsequently tested for agonist-induced increases in intracellular Ca^2+ levels using FLIPR™ technology. Cells were challenged with test compounds (at varying concentrations) and intracellular Ca^++ was measured prior to the addition of resiniferatoxin to all wells to elicit ˜80% maximal response. EC50 or IC50 values were determined from dose-response studies.

T1 sequence (Q8NER1 whole entry): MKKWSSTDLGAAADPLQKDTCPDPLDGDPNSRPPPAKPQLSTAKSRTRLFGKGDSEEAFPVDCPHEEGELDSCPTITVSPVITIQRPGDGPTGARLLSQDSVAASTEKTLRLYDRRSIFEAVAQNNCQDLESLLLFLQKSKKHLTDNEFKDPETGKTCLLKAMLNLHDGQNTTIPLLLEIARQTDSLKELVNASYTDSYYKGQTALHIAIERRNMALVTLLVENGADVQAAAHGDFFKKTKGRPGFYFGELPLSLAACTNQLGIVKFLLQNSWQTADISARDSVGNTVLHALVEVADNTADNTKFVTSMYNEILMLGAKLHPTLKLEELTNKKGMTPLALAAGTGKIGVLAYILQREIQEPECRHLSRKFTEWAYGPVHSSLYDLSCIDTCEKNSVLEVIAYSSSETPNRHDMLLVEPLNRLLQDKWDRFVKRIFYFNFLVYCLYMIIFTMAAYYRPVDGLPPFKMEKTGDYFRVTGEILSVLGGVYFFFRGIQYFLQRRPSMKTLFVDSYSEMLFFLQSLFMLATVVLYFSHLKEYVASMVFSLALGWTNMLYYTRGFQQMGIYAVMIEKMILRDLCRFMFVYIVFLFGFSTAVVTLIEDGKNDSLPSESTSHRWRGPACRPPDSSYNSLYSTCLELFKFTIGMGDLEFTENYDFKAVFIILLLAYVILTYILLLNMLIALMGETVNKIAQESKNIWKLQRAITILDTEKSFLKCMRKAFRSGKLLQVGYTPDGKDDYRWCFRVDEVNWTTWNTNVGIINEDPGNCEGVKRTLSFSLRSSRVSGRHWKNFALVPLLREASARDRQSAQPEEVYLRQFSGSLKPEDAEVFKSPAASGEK

SMILES	EC50 [µM]
Cc1ccccc1N1CCC(C(=O)N2CCSCC2)CC1 [Compound 1, (1-o-Tolyl-piperidin-4-yl)-thiomorpholin-4-yl-methanone]	0.23
Cc1cccc(N2CCC(C(=O)N3CCC(O)CC3)CC2)c1C [Compound 2, [1-(2,3-Dimethyl-phenyl)-piperidin-4-yl]-(4-hydroxy-piperidin-1-yl)-methanone]	0.24
O=C(C1CCN(c2cccc(-c3ccccc3)c2)CC1)N1CCOCC1 [Compound 3, (1-Biphenyl-3-yl-piperidin-4-yl)-morpholin-4-yl-methanone]	0.27
Cc1ccc(N2CCC(C(=O)N3CCSCC3)CC2)cc1F [Compound 4, [1-(3-Fluoro-4-methyl-phenyl)-piperidin-4-yl]-thiomorpholin-4-yl-methanone]	0.27
O=C(C1CCN(c2cccc(C(F)(F)F)c2)CC1)N1CCOCC1 [Compound 5, [1-(3-Trifluoromethyl-phenyl)-piperidin-4-yl]-morpholin-4-yl-methanone]	0.33
Cc1ccc(N2CCC(C(=O)N3CCSCC3)CC2)cc1C [Compound 6, [1-(3,4-Dimethyl-phenyl)-piperidin-4-yl]-thiomorpholin-4-yl-methanone]	0.34
Cc1cccc(N2CCC(C(=O)N3CCSCC3)CC2)c1C [Compound 7]	0.76
Cc1ccc(N2CCC(C(=O)N3CCC(O)CC3)CC2)cc1C [Compound 8]	0.91
Cc1ccc(N2CCC(C(=O)N3CCCCC3)CC2)cc1C [Compound 9]	1.04
Cc1ccc(N2CCC(C(=O)N3CCCCC3)CC2)cc1F [Compound 10]	1.3
Cc1ccccc1N1CCC(C(=O)N2CCC(O)CC2)CC1 [Compound 11]	1.42
Cc1ccc(N2CCC(C(=O)N3CCOCC3)CC2)cc1C [Compound 12]	1.5
Cc1ccccc1N1CCC(C(=O)N2CCOCC2)CC1 [Compound 13]	1.59
Cc1cccc(N2CCC(C(=O)N3CCCCC3)CC2)c1C [Compound 14]	1.64
O=C(C1CCN(c2cc(F)cc(F)c2)CC1)N1CCOCC1 [Compound 15]	1.85
Cc1cccc(N2CCC(C(=O)N3CCSC3)CC2)c1C [Compound 16]	1.89
O=C(C1CCN(c2cccc3ccccc23)CC1)N1CCCCC1 [Compound 17]	1.91
O=C(C1CCN(c2cc(F)cc(F)c2)CC1)N1CCSCC1 [Compound 18]	1.97
Cc1ccc(N2CCC(C(=O)N3CCOCC3)CC2)cc1F [Compound 19]	2
O=C(C1CCN(c2cc(F)cc(F)c2)CC1)N1CCCCC1 [Compound 20]	2.05
O=C(C1CCN(c2cccc(-c3ccccc3)c2)CC1)N1CCSCC1 [Compound 21]	2.2
Cc1ccc(N2CCC(C(=O)N3CCC(O)CC3)CC2)cc1F [Compound 22]	2.3
O=C(C1CCN(c2cc(F)cc(F)c2)CC1)N1CCC(O)CC1 [Compound 23]	2.8
O=C(C1CCN(c2cccc3ccccc23)CC1)N1CCSC1 [Compound 24]	3.1

More lines, now with the values ahead:

EC50 [µM]	SMILES
3.2	Cc1ccccc1N1CCC(C(=O)N2CCCCCC2)CC1 [Compound 25]
3.26	Cc1ccccc1N1CCC(C(=O)N2CCCCC2)CC1 [Compound 26]
3.53	COc1cccc(N2CCC(C(=O)N3CCOCC3)CC2)c1 [Compound 27]
3.7	O=C(C1CCN(c2cccc(C(F)(F)F)c2)CC1)N1CCCCC1 [Compound 28]
3.8	Cc1cccc(N2CCC(C(=O)N3CCCCC3)CC2)c1 [Compound 29]
3.8	CC(=O)N1CCN(C(=O)C2CCN(c3cccc(-c4ccccc4)c3)CC2)CC1 [Compound 30]
4	CC(=O)N1CCN(C(=O)C2CCN(c3cccc(C)c3C)CC2)CC1 [Compound 31]
4.1	Cc1cccc(N2CCC(C(=O)N3CCOCC3)CC2)c1 [Compound 32]
4.1	O=C(C1CCN(c2cccc(-c3ccccc3)c2)CC1)N1CCCCC1 [Compound 33]
4.37	COc1cccc(N2CCC(C(=O)N3CCSCC3)CC2)c1 [Compound 34]
4.6	Cc1cccc(N2CCC(C(=O)N3C(C)CCCC3C)CC2)c1C (centres unmarked) [Compound 35]
5.2	Cc1cccc(N2CCC(C(=O)N3CCC(O)C3)CC2)c1C (centres unmarked) [Compound 36]
5.4	Cc1ccccc1N1CCC(C(=O)N2CCSC2)CC1 [Compound 37]
7.84	Cc1ccccc1N1CCC(C(=O)N2CCCC2)CC1 [Compound 38]
